# Structures can show the parent of a compound that is named as a salt.
# Molecular target: T1, Human Polθ polymerase domain (aa1820-2590) (Homo sapiens, UniProt O75417)
# T1 construct: Human Polθ polymerase domain (aa1820-2590) was expressed in E. Coli; made in house; host or cells: E. coli
# T1 sequence (O75417 1820-2590): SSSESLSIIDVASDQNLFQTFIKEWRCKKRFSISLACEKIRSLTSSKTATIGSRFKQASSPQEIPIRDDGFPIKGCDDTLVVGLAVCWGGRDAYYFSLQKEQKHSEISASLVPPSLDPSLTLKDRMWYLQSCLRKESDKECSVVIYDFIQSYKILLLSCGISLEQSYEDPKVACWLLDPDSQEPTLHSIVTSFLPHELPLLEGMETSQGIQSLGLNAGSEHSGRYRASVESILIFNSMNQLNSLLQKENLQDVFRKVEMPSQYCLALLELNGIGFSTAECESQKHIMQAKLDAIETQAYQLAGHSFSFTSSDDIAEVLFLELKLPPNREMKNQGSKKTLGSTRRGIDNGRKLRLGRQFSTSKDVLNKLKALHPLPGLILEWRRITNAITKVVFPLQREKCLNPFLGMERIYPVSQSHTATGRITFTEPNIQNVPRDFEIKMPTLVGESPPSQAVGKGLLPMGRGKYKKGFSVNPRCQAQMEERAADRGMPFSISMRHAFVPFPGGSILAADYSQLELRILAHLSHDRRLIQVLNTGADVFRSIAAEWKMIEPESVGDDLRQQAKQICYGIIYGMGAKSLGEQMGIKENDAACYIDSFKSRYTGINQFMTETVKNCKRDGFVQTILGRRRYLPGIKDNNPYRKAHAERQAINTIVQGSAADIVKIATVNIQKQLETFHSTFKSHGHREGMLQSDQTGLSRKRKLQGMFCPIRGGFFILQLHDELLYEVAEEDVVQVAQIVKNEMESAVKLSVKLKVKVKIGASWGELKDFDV
# Assay: Polθ Polymerase Domain WT KI Assay (PicoGreen)
# Type: biochemical
# Details: 100 nM DNA substrate, 0.156 nM Polθ, initial rates vs inhibitor concentration
# Summary of the method: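 E. coli-expressed human Polθ polymerase domain (aa1820-2590) on annealed DNA II Short/Long primer-template (1.2:1), in 25 mM Tris pH 7.5, NaCl, 5% glycerol, 0.01% Triton X-100, 0.1 mg/ml BSA, 1 mM DTT, 1% DMSO. EDTA-quenched timepoints to 180 min, PicoGreen fluorescence. Initial rates vs inhibitor concentration fitted four-parameter for KI.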
row,Compound,Ki [nM]
1,"Cc1cc(C(F)(F)F)cc(N2C(=O)C[C@@H]3CN(CCN4C[C@H]5C[C@@H]4CN5)c4c(C)cccc4N(C)C(=O)[C@H]32)n1 [Example 58, (3aR,11aS)-5-(2-((1R,4R)-2,5-Diazabicyclo[2.2.1]heptan-2-yl)ethyl)-6,10-dimethyl-1-(6-methyl-4-(trifluoromethyl)pyridin-2-yl)-1,3a,4,5,10,11a-hexahydro-2H-benzo[b]pyrrolo[2,3-f][1,4]diazocine-2,11(3H)-dione dihydrochloride]",0.777
2,"Cc1cc(C(F)(F)F)cc(N2C(=O)C[C@@H]3CN(CC4CCN(C)CC4)c4c(C)cccc4N(C)C(=O)[C@H]32)n1 [Example 79, (3aR,11aS)-6,10-Dimethyl-1-(6-methyl-4-(trifluoromethyl)pyridin-2-yl)-5-((1-methylpiperidin-4-yl)methyl)-1,3a,4,5,10,11a-hexahydro-2H-benzo[b]pyrrolo[2,3-f][1,4]diazocine-2,11(3H)-dione]",1.36
3,"Cc1cc(C(F)(F)F)cc(N2C(=O)C[C@@H]3CNc4c(C)cccc4N(C)C(=O)[C@H]32)n1 [Example 3, (3aR,11aS)-6,10-Dimethyl-1-(6-methyl-4-(trifluoromethyl)pyridin-2-yl)-1,3a,4,5,10,11a-hexahydro-2H-benzo[b]pyrrolo[2,3-f][1,4]diazocine-2,11(3H)-dione]",0.927
4,"Cc1cc(C(F)(F)F)cc(N2C(=O)C[C@@H]3CNc4c(F)cccc4N(C)C(=O)[C@H]32)n1 [Example 1, (3aR,11aS)-6-Fluoro-10-methyl-1-(6-methyl-4-(trifluoromethyl)pyridin-2-yl)-1,3a,4,5,10,11a-hexahydro-2H-benzo[b]pyrrolo[2,3-f][1,4]diazocine-2,11(3H)-dione]",15.3
5,"Cc1cc(C(F)(F)F)cc(N2C(=O)C[C@@H]3CN(CC(=O)N4CCN(C)CC4)c4c(C)cccc4N(C)C(=O)[C@H]32)n1 [Example 93, (3aR,11aS)-6,10-Dimethyl-1-(6-methyl-4-(trifluoromethyl)pyridin-2-yl)-5-(2-(4-methylpiperazin-1-yl)-2-oxoethyl)-1,3a,4,5,10,11a-hexahydro-2H-benzo[b]pyrrolo[2,3-f][1,4]diazocine-2,11(3H)-dione]",1.19
6,"Cc1cc(C(F)(F)F)cc(N2C(=O)C[C@@H]3CN(CCN4CCOCC4)c4c(C)cccc4NC(=O)[C@H]32)n1 [Example 147, (3aR,11aS)-6-Methyl-1-(6-methyl-4-(trifluoromethyl)pyridin-2-yl)-5-(2-morpholinoethyl)-1,3a,4,5,10,11a-hexahydro-2H-benzo[b]pyrrolo[2,3-f][1,4]diazocine-2,11(3H)-dione]",3.62
7,"Cc1cc(C(F)(F)F)cc(N2C(=O)C[C@@H]3CN(CCN4CC[C@H](N(C)C)[C@H](F)C4)c4c(C)cccc4N(C)C(=O)[C@H]32)n1 [Example 66, (3aR,11aS)-5-(2-((3R,4S)-4-(Dimethylamino)-3-fluoropiperidin-1-yl)ethyl)-6,10-dimethyl-1-(6-methyl-4-(trifluoromethyl)pyridin-2-yl)-1,3a,4,5,10,11a-hexahydro-2H-benzo[b]pyrrolo[2,3-f][1,4]diazocine-2,11(3H)-dione dihydrochloride]",0.936
8,"Cc1cc(C(F)(F)F)cc(N2C(=O)C[C@@H]3CN(CCN4CCC(F)(F)C4)c4c(Cl)cccc4N(C)C(=O)[C@H]32)n1 [Example 23, (3aR,11aS)-6-Chloro-5-(2-(3,3-difluoropyrrolidin-1-yl)ethyl)-10-methyl-1-(6-methyl-4-(trifluoromethyl)pyridin-2-yl)-1,3a,4,5,10,11a-hexahydro-2H-benzo[b]pyrrolo[2,3-f][1,4]diazocine-2,11(3H)-dione]",1.48
9,"Cc1cc(C(F)(F)F)cc(N2C(=O)C[C@@H]3CN(CCCN4CCOCC4)c4c(Cl)cccc4N(C)C(=O)[C@H]32)n1 [Example 136, (3aR,11aS)-6-Chloro-10-methyl-1-(6-methyl-4-(trifluoromethyl)pyridin-2-yl)-5-(3-morpholinopropyl)-1,3a,4,5,10,11a-hexahydro-2H-benzo[b]pyrrolo[2,3-f][1,4]diazocine-2,11(3H)-dione hydrochloride]",0.786
10,"Cc1cc(C(F)(F)F)cc(N2C(=O)C[C@@H]3CN(CCN4CCN(C(=O)[C@H](C)O)CC4)c4c(C)cccc4N(C)C(=O)[C@H]32)n1 [Example 52, (3aR,11aS)-5-(2-(4-((S)-2-Hydroxypropanoyl)piperazin-1-yl)ethyl)-6,10-dimethyl-1-(6-methyl-4-(trifluoromethyl)pyridin-2-yl)-1,3a,4,5,10,11a-hexahydro-2H-benzo[b]pyrrolo[2,3-f][1,4]diazocine-2,11(3H)-dione hydrochloride]",0.957
11,"Cc1cc(C(F)(F)F)cc(N2C(=O)C[C@@H]3CN(C[C@H]4CNC[C@@H]4O)c4c(F)cccc4N(C)C(=O)[C@H]32)n1 (relative stereo) [Example 91, (3aR,11aS)-6-Fluoro-5-(((rel-trans)-4-hydroxypyrrolidin-3-yl)methyl)-10-methyl-1-(6-methyl-4-(trifluoromethyl)pyridin-2-yl)-1,3a,4,5,10,11a-hexahydro-2H-benzo[b]pyrrolo[2,3-f][1,4]diazocine-2,11(3H)-dione]",17.3
12,"Cc1cc(C(F)(F)F)cc(N2C(=O)C[C@@H]3CN(Cc4cn5c(n4)[C@H](C)N(C)CC5)c4c(C)cccc4N(C)C(=O)[C@H]32)n1 (racemic) [Example 116b, (3aR,11aS)-5-(((S/R)-7,8-Dimethyl-5,6,7,8-tetrahydroimidazo[1,2-a]pyrazin-2-yl)methyl)-6,10-dimethyl-1-(6-methyl-4-(trifluoromethyl)pyridin-2-yl)-1,3a,4,5,10,11a-hexahydro-2H-benzo[b]pyrrolo[2,3-f][1,4]diazocine-2,11(3H)-dione]",0.421
13,"Cc1cc(C(F)(F)F)cc(N2C(=O)C[C@@H]3CN(CCN4CCNCC4)c4c(C)cccc4NC(=O)[C@H]32)n1 [Example 148, (3aR,11aS)-6-Methyl-1-(6-methyl-4-(trifluoromethyl)pyridin-2-yl)-5-(2-(piperazin-1-yl)ethyl)-1,3a,4,5,10,11a-hexahydro-2H-benzo[b]pyrrolo[2,3-f][1,4]diazocine-2,11(3H)-dione]",3.04

# Next, values leading:
row,Ki [nM],Compound
1,4.14,"Cc1cc(C(F)(F)F)cc(N2C(=O)C[C@@H]3CN(C[C@@H]4CN(C)CCO4)c4c(Cl)cccc4N(C)C(=O)[C@H]32)n1 (racemic) [Example 120b, (3aR,11aS)-6-Chloro-10-methyl-1-(6-methyl-4-(trifluoromethyl)pyridin-2-yl)-5-(((S/R)-4-methylmorpholin-2-yl)methyl)-1,3a,4,5,10,11a-hexahydro-2H-benzo[b]pyrrolo[2,3-f][1,4]diazocine-2,11(3H)-dione hydrochloride]"
2,4.09,"Cc1cc(C(F)(F)F)cc(N2C(=O)C[C@@H]3CN(C[C@@H]4CCCCN4C)c4c(Cl)cccc4N(C)C(=O)[C@H]32)n1 (racemic) [Example 117b, (3aR,11aS)-6-Chloro-10-methyl-1-(6-methyl-4-(trifluoromethyl)pyridin-2-yl)-5-(((S/R)-1-methylpiperidin-2-yl)methyl)-1,3a,4,5,10,11a-hexahydro-2H-benzo[b]pyrrolo[2,3-f][1,4]diazocine-2,11(3H)-dione]"
3,6.14,"Cc1cc(C(F)(F)F)cc(N2C(=O)C[C@@H]3CN(CC(O)CN(C)C)c4c(Cl)cccc4N(C)C(=O)[C@H]32)n1 (single isomer, unassigned) [Example 132b]"
4,1.47,"Cc1cc(C(F)(F)F)cc(N2C(=O)C[C@@H]3CN(C[C@@H](O)CN4CCOCC4)c4c(Cl)cccc4N(C)C(=O)[C@H]32)n1 (racemic) [Example 133a, (3aR,11aS)-6-chloro-5-((S/R)-2-hydroxy-3-morpholinopropyl)-10-methyl-1-(6-methyl-4-(trifluoromethyl)pyridin-2-yl)-1,3a,4,5,10,11a-hexahydro-2H-benzo[b]pyrrolo[2,3-f][1,4]diazocine-2,11(3H)-dione]"
5,1.48,"Cc1cc(C(F)(F)F)cc(N2C(=O)C[C@@H]3CN(C[C@@H]4CCN(C)[C@@H](C)C4)c4c(Cl)cccc4N(C)C(=O)[C@H]32)n1 (single isomer, unassigned) [Example 126d]"
6,11.8,"Cc1cc(C(F)(F)F)cc(N2C(=O)C[C@@H]3CN(CC(C)O)c4c(F)cccc4N(C)C(=O)[C@H]32)n1 (mixture of isomers) [Example 130a, (3aR,11aS)-6-fluoro-5-((S/R)-2-hydroxypropyl)-10-methyl-1-(6-methyl-4-(trifluoromethyl)pyridin-2-yl)-1,3a,4,5,10,11a-hexahydro-2H-benzo[b]pyrrolo[2,3-f][1,4]diazocine-2,11(3H)-dione]"

# — patent US20260124214A1, “HETEROCYCLIC COMPOUNDS FOR USE IN THE TREATMENT OF CANCER” (ARTIOS PHARMA LIMITED, priority 2021, published 2026)
